Read-outs that look alike come from different tables or passages of the source.
What was measured:
[1] = type: physicochemical
Septoria tritici = experiment: In vivo preventive test on Septoria tritici (leaf spot on wheat); conditions: 500 ppm; wheat plants sprayed 24 hours before contamination; grading 21 to 28 days after contamination vs control plants
Protocol: Wheat plants (“Scipion” variety), sown in starter cups on a 50/50 peat soil-pozzolana substrate and grown at 22° C. (12 h)/20° C. (12 h), are treated at the 1-leaf stage (10 cm height) by spraying with the active ingredient prepared as described above. Plants, used as controls, are treated with the mixture of acetone/tween/DMSO/water not containing the active material. After 24 hours, the plants are contaminated by spraying the leaves with an aqueous suspension of cryopreserved Septoria tritici spores (500 000 spores per ml). […] Grading (% of efficacy) is carried out 21 to 28 days after the contamination, in comparison with the control plants.

[2] = method [a]: HPLC/LC-MS on reversed phase at pH 2.7, 0.1% formic acid in water / acetonitrile, gradient 10% to 95% acetonitrile
[3] = HPLC on reversed phase columns, method [a]: pH 2.7, 0.1% formic acid in water / acetonitrile, linear gradient 10% to 95% acetonitrile
[4] = method [a]: HPLC/LC-MS on reversed phase at pH 2.7, 0.1% formic acid in water / acetonitrile, linear gradient 10% to 95% acetonitrile

| SMILES | log P [1, 2] | log P [1, 3] | log P [1, 4] | % of efficacy (protection) (Septoria tritici) |
| --- | --- | --- | --- | --- |
| CCOC1(C(=O)NCc2cn(CC)nc2C)CC(c2ccc3ncc(Br)cc3c2)=NO1 (stereo not drawn) [compound 416] | 1.95[a] | – | – | 100% |
| C=Cc1cnc2ccc(C3=NOC(C)(C(=O)NC(C)C)C3)cc2c1 (stereo not drawn) [compound 304] | – | 2.20[a] | – | 100% |
| C#Cc1cnc2ccc(C3=NOC(C)(C(=O)NCc4ccc(-c5csnn5)cc4)C3)cc2c1 (stereo not drawn) [compound 86] | – | – | 2.82^[a] | 75% |
| CCC(C)NC(=O)C1(C)CC(c2cc3cc(Br)cnc3c(OC)c2OC)=NO1 (stereo not drawn) [compound 28] | – | – | 3.21^[a] | 100% |
| C#Cc1cnc2ccc(C3=NOC(OC)(C(=O)N(C(C)C)C4CC4)C3)cc2c1 (stereo not drawn) [compound 467] | 3.35[a] | – | – | 97% |
| CC1(C)OCC(CNC(=O)C2(C(F)F)CC(c3ccc4ncc(I)cc4c3)=NO2)O1 (stereo not drawn) [compound 618] | – | 3.06[a] | – | 93% |
| C#Cc1cnc2ccc(C3=NOC(C)(C(=O)NCC4CCC(=O)N4C)C3)cc2c1 (stereo not drawn) [compound 213] | – | – | 1.65^[a] | 97% |
| C#Cc1cnc2ccc(C3=NOC(C)(C(=O)NC(C)c4sc(C)nc4C)C3)cc2c1 (stereo not drawn) [compound 333] | – | 2.20[a] | – | 98% |
| C#Cc1cnc2ccc(C3=NOC(C)(C(=O)NCC4CCC(C(F)(F)F)CC4)C3)cc2c1 (stereo not drawn) [compound 121] | – | – | 3.61^[a] | 75% |
| CC1(C(=O)NCc2ccc(Cl)nc2)CC(c2ccc3ncc(Br)cc3c2)=NO1 (stereo not drawn) [compound 104] | – | – | 2.73^[a] | 92% |
| C#Cc1cnc2ccc(C3=NOC(C)(C(=S)NCc4cnn(C)c4C)C3)cc2c1 (racemic) [compound 443] | 2.76[a] | – | – | 88% |
| CC(NC(=O)C1(C)CC(c2ccc3ncc(Br)cc3c2)=NO1)c1ccccc1Cl (stereo not drawn) [compound 294] | – | 3.85[a] | – | 70% |
| CC1(C(=O)NC2CCCC2)CC(c2ccc3ncc(Br)cc3c2)=NO1 (racemic) [compound 390] | 3.29[a] | – | – | 98% |
| CCn1cc(CNC(=O)C2(C)CC(c3ccc4ncc(Cl)cc4c3)=NO2)c(C)n1 (stereo not drawn) [compound 54] | – | – | 2.28^[a] | 100% |
| C#Cc1cnc2ccc(C3=NOC(C)(C(=O)NC(C)c4ccncc4)C3)cc2c1 (stereo not drawn) [compound 335] | – | 1.28[a] | – | 78% |

More lines, main results first:

| log P [1, 2] | log P [1, 3] | log P [1, 4] | SMILES | % of efficacy (protection) (Septoria tritici) |
| --- | --- | --- | --- | --- |
| 2.50[a] | – | – | CCn1cc(NC(=O)C2(C)CC(c3ccc4ncc(Br)cc4c3)=NO2)c(C)n1 (stereo not drawn) [compound 489] | 93% |
| 1.44[a] | – | – | C#Cc1cnc2ccc(C3=NOC(OC)(C(=O)NCC(O)CO)C3)cc2c1 (stereo not drawn) [compound 473] | 75% |
| – | – | 2.44^[a] | C#Cc1cnc2ccc(C3=NOC(C)(C(=O)NCc4ccc(Cl)nc4)C3)cc2c1 (stereo not drawn) [compound 160] | 71% |
| – | 3.42[a] | – | C#Cc1cnc2ccc(C3=NOC(C)(C(=O)NC(C)c4ccccc4Cl)C3)cc2c1 (stereo not drawn) [compound 349] | 94% |
| – | 3.94[a] | – | C#Cc1cnc2ccc(C3=NOC(C)(C(=O)NC(c4cccc(Cl)c4)C(F)(F)F)C3)cc2c1 (stereo not drawn) [compound 357] | 78% |
| – | – | 3.08^[a] | C#Cc1cc2cc(C3=NOC(C)(C(=O)NC(C)C)C3)ccc2nc1Cl (stereo not drawn) [compound 134] | 71% |
| – | 3.85[a] | – | C#Cc1cnc2ccc(C3=NOC(C)(C(=O)NC(C)c4cccc5ccccc45)C3)cc2c1 (stereo not drawn) [compound 339] | 78% |
| – | 3.23[a] | – | CC(C)c1noc(C(C)NC(=O)C2(C)CC(c3ccc4ncc(Br)cc4c3)=NO2)n1 (stereo not drawn) [compound 331] | 83% |
| – | – | 2.6^[a] | Cc1nn(C(C)C)c(C)c1CNC(=O)C1(C)CC(c2ccc3ncc(Br)cc3c2)=NO1 (stereo not drawn) [compound 184] | 71% |

Reference: patent US9510598B2, “Nitrogen-containing heterocyclic compounds for plant disease control” (BAYER CROPSCIENCE AG, priority 2012, dated 2016)
